Measurements from patent publication US11045482B2, “Use of glucocorticoid receptor modulators in the treatment of catecholamine-secreting tumors” (Corcept Therapeutics, Inc., priority 2017, dated 2021).

Tests used:
[1] = test system: PNMT mRNA and enzyme expression; conditions: rats, depletion of corticosteroids by hypophysectomy; cited from earlier work
[2] = test system: metastatic pheochromocytoma associated with ectopic ACTH secretion; experiment: Case of a person with metastatic pheochromocytoma and Cushing syndrome given mifepristone (Example 1); assay type: in vivo, human; conditions: for catecholamine excess symptoms (palpitations, tremors and panic attacks): despite high dose of atenolol and phenoxybenzamine, before mifepristone
Protocol: A person with metastatic pheochromocytoma associated with ectopic ACTH secretion unresponsive to conventional chemotherapy with CVD (cyclophosphamide, vincristine and dacarbazine) and Sunitinib (tyrosine kinase inhibitors) was enrolled in a phase 2 study with a somatostatin analog. […] At the same time the diagnosis of Cushing syndrome was made and 300 mg of Mifepristone was added to their regimen and the dose was further increased to 600 mg daily two weeks later. […] The plasma epinephrine level after 2 weeks of therapy with mifepristone was decreased by 50%, and the plasma metanephrine level was decreased by 25% after 9 weeks of therapy.

[3] = test system: metastatic or unresectable catecholamine-secreting tumor; experiment: Patient with metastatic or unresectable catecholamine-secreting tumor: blood catecholamine level after five weeks of treatment (Examples 2-77); assay type: in vivo, human
Protocol: (§1) A patient having a metastatic or unresectable catecholamine-secreting tumor, who is not in need of treatment with a glucocorticoid receptor antagonist, and is not receiving exogenous glucocorticoid receptor agonist treatment, is administered an effective amount of mifepristone at a daily dose of 50 mg/kg/day.
as §1, with “20” for “50”
as §1, with “15” for “50”
as §1, with “10” for “50”
as §1, with “5” for “50”
as §1, with “mg/kg/day, and is also administered chemotherapy.” for “mg/kg/day.”
as §1, with “20 mg/kg/day, and is also administered chemotherapy.” for “50 mg/kg/day.”
as §1, with “15 mg/kg/day, and is also administered chemotherapy.” for “50 mg/kg/day.”
as §1, with “10 mg/kg/day, and is also administered chemotherapy.” for “50 mg/kg/day.”
as §1, with “5 mg/kg/day, and is also administered chemotherapy.” for “50 mg/kg/day.”
as §1, with “mg/kg/day, and is also administered an adrenergic antagonist. […]” for “mg/kg/day.”

[4] = test system: rat phenylethanolamine N-methyltransferase (PNMT) gene promoter; conditions: RU486 10 μM; cited from earlier work
[5] = test system: pheochromocytoma crisis (PC); conditions: cited from earlier work
PNMT mRNA = conditions: intact rats; cited from earlier work
[6] = after 3 months of therapy with mifepristone
[7] = one week after the discontinuation of mifepristone

adrenocorticotropin: stimulates endogenous glucocorticoid production (SYSMEHFRWGKPVGKKRRPVKVYPNGAEDESAEAFPLEF; Corticotropin; UniProt P01189 138-176, looked up)
decrease of PNMT mRNA and enzyme expression after hypophysectomy [1]: reversed

CC#C[C@]1(O)CC[C@H]2[C@@H]3CCC4=CC(=O)CCC4=C3[C@@H](c3ccc(N(C)C)cc3)C[C@@]21C [mifepristone, 11β-(4-dimethylaminophenyl)-17β-hydroxy-17α-(1-propynyl)-estra-4,9-dien-3-one]
plasma epinephrine level decreased by ([2]; after 2 weeks of therapy with mifepristone (300 mg)): 50% | metanephrine level [2, 6]: slightly elevated | symptoms of catecholamine excess [2, 6]: controlled | adverse event ([2]; after 3 months of therapy, mifepristone temporarily withheld): vaginal bleeding | plasma metanephrine level decreased by ([2]; after 9 weeks of therapy (300 mg, increased to 600 mg daily two weeks later)): 25% | metanephrine measurement after discontinuation compared to the level during mifepristone dosing [2, 7]: fourfold increase | symptoms of catecholamine excess after discontinuation [2, 7]: worse symptoms of catecholamine excess | symptoms related to cortisol excess as well as to catecholamine excess ([2]; one week after the institution of mifepristone (300 mg), added to somatostatin analog, atenolol, phenoxybenzamine): dramatic improvement | blood level of a catecholamine after five weeks of treatment as compared to the initial level ([3]; daily dose of 1 mg/kg/day, also administered somatostatin): lower | blood level of a catecholamine after five weeks of treatment as compared to the initial level ([3]; daily dose of 5 mg/kg/day): lower | blood level of a catecholamine after five weeks of treatment as compared to the initial level ([3]; daily dose of 5 mg/kg/day, also administered a somatostatin analog): lower | blood level of a catecholamine after five weeks of treatment as compared to the initial level ([3]; daily dose of 5 mg/kg/day, also administered an adrenergic antagonist): lower | blood level of a catecholamine after five weeks of treatment as compared to the initial level ([3]; daily dose of 5 mg/kg/day, also administered chemotherapy): lower | blood level of a catecholamine after five weeks of treatment as compared to the initial level ([3]; daily dose of 5 mg/kg/day, also administered somatostatin): lower | blood level of a catecholamine after five weeks of treatment as compared to the initial level ([3]; daily dose of 5 mg/kg/day, also receives Peptide Receptor Radionuclide Therapy): lower | blood level of a catecholamine after five weeks of treatment as compared to the initial level ([3]; daily dose of 10 mg/kg/day): lower | blood level of a catecholamine after five weeks of treatment as compared to the initial level ([3]; daily dose of 10 mg/kg/day, also administered a somatostatin analog): lower | blood level of a catecholamine after five weeks of treatment as compared to the initial level ([3]; daily dose of 10 mg/kg/day, also administered an adrenergic antagonist): lower | blood level of a catecholamine after five weeks of treatment as compared to the initial level ([3]; daily dose of 10 mg/kg/day, also administered chemotherapy): lower | blood level of a catecholamine after five weeks of treatment as compared to the initial level ([3]; daily dose of 10 mg/kg/day, also administered somatostatin): lower | blood level of a catecholamine after five weeks of treatment as compared to the initial level ([3]; daily dose of 10 mg/kg/day, also receives Peptide Receptor Radionuclide Therapy): lower | blood level of a catecholamine after five weeks of treatment as compared to the initial level ([3]; daily dose of 15 mg/kg/day): lower | blood level of a catecholamine after five weeks of treatment as compared to the initial level ([3]; daily dose of 15 mg/kg/day, also administered a somatostatin analog): lower | blood level of a catecholamine after five weeks of treatment as compared to the initial level ([3]; daily dose of 15 mg/kg/day, also administered chemotherapy): lower | blood level of a catecholamine after five weeks of treatment as compared to the initial level ([3]; daily dose of 15 mg/kg/day, also receives Peptide Receptor Radionuclide Therapy): lower | blood level of a catecholamine after five weeks of treatment as compared to the initial level ([3]; daily dose of 20 mg/kg/day): lower | blood level of a catecholamine after five weeks of treatment as compared to the initial level ([3]; daily dose of 20 mg/kg/day, also administered a somatostatin analog): lower | blood level of a catecholamine after five weeks of treatment as compared to the initial level ([3]; daily dose of 20 mg/kg/day, also administered an adrenergic antagonist): lower | blood level of a catecholamine after five weeks of treatment as compared to the initial level ([3]; daily dose of 20 mg/kg/day, also administered an adrenergic antagonist and Peptide Receptor Radionuclide Therapy): lower | blood level of a catecholamine after five weeks of treatment as compared to the initial level ([3]; daily dose of 20 mg/kg/day, also administered chemotherapy): lower | blood level of a catecholamine after five weeks of treatment as compared to the initial level ([3]; daily dose of 20 mg/kg/day, also administered chemotherapy and a somatostatin analog): lower | blood level of a catecholamine after five weeks of treatment as compared to the initial level ([3]; daily dose of 20 mg/kg/day, also administered chemotherapy and an adrenergic antagonist): lower | blood level of a catecholamine after five weeks of treatment as compared to the initial level ([3]; daily dose of 20 mg/kg/day, also administered chemotherapy and somatostatin): lower | blood level of a catecholamine after five weeks of treatment as compared to the initial level ([3]; daily dose of 20 mg/kg/day, also administered somatostatin): lower | blood level of a catecholamine after five weeks of treatment as compared to the initial level ([3]; daily dose of 20 mg/kg/day, also receives Peptide Receptor Radionuclide Therapy): lower | blood level of a catecholamine after five weeks of treatment as compared to the initial level ([3]; daily dose of 50 mg/kg/day): lower | blood level of a catecholamine after five weeks of treatment as compared to the initial level ([3]; daily dose of 50 mg/kg/day, also administered an adrenergic antagonist): lower | blood level of a catecholamine after five weeks of treatment as compared to the initial level ([3]; daily dose of 50 mg/kg/day, also administered chemotherapy): lower | blood level of a catecholamine after five weeks of treatment as compared to the initial level ([3]; single pharmaceutical composition comprising 50 mg mifepristone and a somatostatin analog, daily for five weeks): lower | blood level of a catecholamine after five weeks of treatment as compared to the initial level ([3]; single pharmaceutical composition comprising 50 mg mifepristone and an adrenergic antagonist, daily for five weeks, also chemotherapy): lower | blood level of a catecholamine after five weeks of treatment as compared to the initial level ([3]; single pharmaceutical composition comprising 50 mg mifepristone and somatostatin, daily for five weeks): lower | blood level of a catecholamine after five weeks of treatment as compared to the initial level ([3]; single pharmaceutical composition comprising 100 mg mifepristone and a somatostatin analog, daily for five weeks): lower | blood level of a catecholamine after five weeks of treatment as compared to the initial level ([3]; single pharmaceutical composition comprising 100 mg mifepristone and an adrenergic antagonist, daily for five weeks): lower | blood level of a catecholamine after five weeks of treatment as compared to the initial level ([3]; single pharmaceutical composition comprising 100 mg mifepristone and an adrenergic antagonist, daily for five weeks, also chemotherapy): lower | blood level of a catecholamine after five weeks of treatment as compared to the initial level ([3]; single pharmaceutical composition comprising 100 mg mifepristone and somatostatin, daily for five weeks): lower | blood level of a catecholamine after five weeks of treatment as compared to the initial level ([3]; single pharmaceutical composition comprising 300 mg mifepristone and a somatostatin analog, daily for five weeks): lower | blood level of a catecholamine after five weeks of treatment as compared to the initial level ([3]; single pharmaceutical composition comprising 300 mg mifepristone and an adrenergic antagonist, daily for five weeks): lower | blood level of a catecholamine after five weeks of treatment as compared to the initial level ([3]; single pharmaceutical composition comprising 300 mg mifepristone and an adrenergic antagonist, daily for five weeks, also chemotherapy): lower | blood level of a catecholamine after five weeks of treatment as compared to the initial level ([3]; single pharmaceutical composition comprising 300 mg mifepristone and somatostatin, daily for five weeks): lower | inhibition of dexamethasone (1 μM) activation of the PNMT promoter [4]: fully inhibited

CC(C)NCC(O)COc1ccc(CC(N)=O)cc1 (centres unmarked) [atenolol]
catecholamine excess symptoms (palpitations, tremors and panic attacks) [2]: continued to experience significant catecholamine excess symptoms

CC(COc1ccccc1)N(CCCl)Cc1ccccc1 (centres unmarked) [phenoxybenzamine]
catecholamine excess symptoms (palpitations, tremors and panic attacks) [2]: continued to experience significant catecholamine excess symptoms

C[C@@H]1C[C@H]2[C@@H]3CCC4=CC(=O)C=C[C@]4(C)[C@@]3(F)[C@@H](O)C[C@]2(C)[C@@]1(O)C(=O)CO [dexamethasone]
pheochromocytoma crisis cases ([5]; 1 mg given as a DST in patients with pheochromocytoma): no cases have been reported | pheochromocytoma crisis ([5]; larger doses, as low as 2 mg): may trigger a PC

CC#CC1(O)CC[C@H]2[C@@H]3C=C(C)C4=CC(=O)C=C[C@]4(C)[C@H]3C(O)C[C@@]21C (some centres unmarked) [RU28362, 11,17-dihydroxy-6-methyl-17-(1-propynyl)androsta-1,4,6-triene-3-one]
PNMT mRNA levels (PNMT mRNA): rise markedly
